Experiment [1] addresses T1, Phosphatidylinositol 5-phosphate 4-kinase type-2 beta (Homo sapiens) (UniProt P78356).
T1 sequence (whole entry): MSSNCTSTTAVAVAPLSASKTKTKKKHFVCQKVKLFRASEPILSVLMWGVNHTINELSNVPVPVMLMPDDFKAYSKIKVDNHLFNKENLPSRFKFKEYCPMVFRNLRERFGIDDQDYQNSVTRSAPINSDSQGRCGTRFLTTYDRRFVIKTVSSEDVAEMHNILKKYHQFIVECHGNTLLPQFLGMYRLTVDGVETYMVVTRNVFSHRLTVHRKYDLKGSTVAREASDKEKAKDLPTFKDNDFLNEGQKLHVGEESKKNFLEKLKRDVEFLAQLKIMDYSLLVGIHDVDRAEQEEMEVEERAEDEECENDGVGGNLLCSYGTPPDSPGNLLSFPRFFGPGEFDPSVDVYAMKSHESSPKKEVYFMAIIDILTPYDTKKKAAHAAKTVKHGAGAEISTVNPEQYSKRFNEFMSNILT
As to the kind of experiment: Inhibition of PIP5K2B (unknown origin) assessed as residual activity at 100 nM by KINOMEscan analysis relative to control.

Experiment [2] deals with T2, Serine/threonine-protein kinase ICK (Homo sapiens) (UniProt Q9UPZ9).
T2 sequence (whole entry): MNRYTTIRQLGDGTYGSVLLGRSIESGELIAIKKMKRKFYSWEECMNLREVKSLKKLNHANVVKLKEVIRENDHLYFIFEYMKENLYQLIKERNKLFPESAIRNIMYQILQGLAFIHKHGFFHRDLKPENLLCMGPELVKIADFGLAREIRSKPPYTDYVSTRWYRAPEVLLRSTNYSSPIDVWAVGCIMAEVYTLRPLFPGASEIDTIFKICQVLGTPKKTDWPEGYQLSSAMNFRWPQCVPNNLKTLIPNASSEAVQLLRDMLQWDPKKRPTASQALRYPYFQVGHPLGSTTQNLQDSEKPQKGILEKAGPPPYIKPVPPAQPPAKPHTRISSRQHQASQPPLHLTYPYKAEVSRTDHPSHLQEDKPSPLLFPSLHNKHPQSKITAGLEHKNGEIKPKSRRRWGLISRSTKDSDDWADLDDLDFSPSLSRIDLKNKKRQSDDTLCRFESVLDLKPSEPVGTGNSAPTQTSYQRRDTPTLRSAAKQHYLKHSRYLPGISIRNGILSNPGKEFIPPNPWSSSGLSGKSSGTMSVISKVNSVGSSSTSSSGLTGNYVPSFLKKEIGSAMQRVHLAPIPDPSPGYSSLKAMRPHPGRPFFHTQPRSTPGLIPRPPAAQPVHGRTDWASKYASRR
As to the kind of experiment: Inhibition of ICK (unknown origin) assessed as residual activity at 100 nM by KINOMEscan analysis relative to control.

Experiment [3] addresses Protein kinase C theta type (Homo sapiens) (UniProt Q04759). The experiment is described as follows: Inhibition of PRKCQ (unknown origin) assessed as residual activity at 100 nM by KINOMEscan analysis relative to control.
Experiment [4] concerns the target T3, cGMP-dependent protein kinase 1 (Homo sapiens) (UniProt Q13976).
T3 sequence (whole entry): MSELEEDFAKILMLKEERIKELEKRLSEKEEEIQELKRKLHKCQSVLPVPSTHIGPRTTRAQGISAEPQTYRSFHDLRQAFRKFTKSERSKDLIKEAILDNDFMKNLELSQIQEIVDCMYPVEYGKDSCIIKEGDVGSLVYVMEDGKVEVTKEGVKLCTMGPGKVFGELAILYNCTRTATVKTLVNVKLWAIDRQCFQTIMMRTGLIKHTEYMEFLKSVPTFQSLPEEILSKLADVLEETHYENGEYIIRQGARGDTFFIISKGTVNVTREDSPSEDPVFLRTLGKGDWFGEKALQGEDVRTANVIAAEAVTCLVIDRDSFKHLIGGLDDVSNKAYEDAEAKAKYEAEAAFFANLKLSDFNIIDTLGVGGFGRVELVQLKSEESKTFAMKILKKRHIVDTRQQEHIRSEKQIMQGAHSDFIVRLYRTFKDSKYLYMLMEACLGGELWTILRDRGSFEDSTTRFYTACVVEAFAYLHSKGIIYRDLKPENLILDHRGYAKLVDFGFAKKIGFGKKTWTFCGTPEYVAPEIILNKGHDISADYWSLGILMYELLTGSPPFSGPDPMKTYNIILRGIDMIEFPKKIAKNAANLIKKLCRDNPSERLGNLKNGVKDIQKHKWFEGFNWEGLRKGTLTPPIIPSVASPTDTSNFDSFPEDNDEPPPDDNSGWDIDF
As to the kind of experiment: Inhibition of PRKG1 (unknown origin) assessed as residual activity at 100 nM by KINOMEscan analysis relative to control.

The target in experiment [5] is Ribosomal protein S6 kinase alpha-3 (Homo sapiens) (UniProt P51812). The experiment is described as follows: Inhibition of N-terminal RSK2 kinetic domain 1 (unknown origin) assessed as residual activity at 100 nM by KINOMEscan analysis relative to control.
For experiment [6], the system named is Epidermal growth factor receptor (Homo sapiens), P00533 [UNDEFINED MUTATION]. The experiment is described as follows: Inhibition of EGFR L747-T751del/Sins mutant (unknown origin) assessed as residual activity at 100 nM by KINOMEscan analysis relative to control.
Sequence of Epidermal growth factor receptor (Homo sapiens), P00533 [UNDEFINED MUTATION] (P00533 whole entry, looked up, stated change not applied): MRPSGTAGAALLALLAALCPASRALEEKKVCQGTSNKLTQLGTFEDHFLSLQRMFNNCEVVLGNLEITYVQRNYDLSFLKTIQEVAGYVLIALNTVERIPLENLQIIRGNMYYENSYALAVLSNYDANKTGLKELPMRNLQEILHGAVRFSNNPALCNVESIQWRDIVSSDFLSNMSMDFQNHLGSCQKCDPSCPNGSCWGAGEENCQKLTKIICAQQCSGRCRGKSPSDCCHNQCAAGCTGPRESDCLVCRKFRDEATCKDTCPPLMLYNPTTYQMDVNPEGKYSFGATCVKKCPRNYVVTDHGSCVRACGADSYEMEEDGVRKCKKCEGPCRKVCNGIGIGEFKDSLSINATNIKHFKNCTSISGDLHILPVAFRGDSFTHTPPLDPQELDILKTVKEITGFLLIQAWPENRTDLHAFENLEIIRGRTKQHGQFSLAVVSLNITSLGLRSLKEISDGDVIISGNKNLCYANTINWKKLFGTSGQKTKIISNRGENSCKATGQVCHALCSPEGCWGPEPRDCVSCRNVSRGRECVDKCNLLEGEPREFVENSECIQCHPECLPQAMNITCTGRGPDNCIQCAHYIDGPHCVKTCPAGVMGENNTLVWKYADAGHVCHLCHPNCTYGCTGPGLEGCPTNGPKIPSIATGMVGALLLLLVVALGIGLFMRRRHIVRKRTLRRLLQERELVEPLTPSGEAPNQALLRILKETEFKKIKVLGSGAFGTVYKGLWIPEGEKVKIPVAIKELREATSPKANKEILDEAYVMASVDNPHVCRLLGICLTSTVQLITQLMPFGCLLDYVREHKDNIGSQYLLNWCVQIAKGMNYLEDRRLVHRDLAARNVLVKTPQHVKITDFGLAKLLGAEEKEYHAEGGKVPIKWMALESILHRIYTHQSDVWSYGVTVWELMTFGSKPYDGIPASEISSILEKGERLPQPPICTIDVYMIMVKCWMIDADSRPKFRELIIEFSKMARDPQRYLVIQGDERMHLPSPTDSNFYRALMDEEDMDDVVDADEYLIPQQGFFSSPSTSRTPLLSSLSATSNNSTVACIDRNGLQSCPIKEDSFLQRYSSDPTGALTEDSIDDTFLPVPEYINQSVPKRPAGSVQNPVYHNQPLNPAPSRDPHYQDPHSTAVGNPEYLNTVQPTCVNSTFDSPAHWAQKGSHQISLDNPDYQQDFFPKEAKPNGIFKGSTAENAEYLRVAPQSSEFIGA

Sequence of Ribosomal protein S6 kinase alpha-3 (Homo sapiens) (P51812 whole entry, the tested form may be a part): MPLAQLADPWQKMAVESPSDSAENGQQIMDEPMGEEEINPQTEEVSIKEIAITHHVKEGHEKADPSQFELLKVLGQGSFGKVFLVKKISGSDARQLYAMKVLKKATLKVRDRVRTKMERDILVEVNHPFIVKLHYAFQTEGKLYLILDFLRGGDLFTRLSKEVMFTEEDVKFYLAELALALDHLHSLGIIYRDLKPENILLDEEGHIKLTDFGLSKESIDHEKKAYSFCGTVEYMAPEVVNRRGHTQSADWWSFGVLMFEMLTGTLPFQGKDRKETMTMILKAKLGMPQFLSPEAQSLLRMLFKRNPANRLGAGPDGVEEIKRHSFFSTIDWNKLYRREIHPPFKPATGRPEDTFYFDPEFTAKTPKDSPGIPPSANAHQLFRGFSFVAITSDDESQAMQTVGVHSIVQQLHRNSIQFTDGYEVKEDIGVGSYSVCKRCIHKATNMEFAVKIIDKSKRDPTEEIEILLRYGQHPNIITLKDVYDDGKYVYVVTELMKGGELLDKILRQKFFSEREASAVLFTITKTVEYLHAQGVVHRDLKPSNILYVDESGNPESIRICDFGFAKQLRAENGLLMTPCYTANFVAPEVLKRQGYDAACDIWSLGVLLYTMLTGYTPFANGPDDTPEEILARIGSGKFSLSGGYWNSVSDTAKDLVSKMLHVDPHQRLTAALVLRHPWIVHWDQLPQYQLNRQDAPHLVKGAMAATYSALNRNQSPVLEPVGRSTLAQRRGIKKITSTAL
Sequence of Protein kinase C theta type (Homo sapiens) (Q04759 whole entry, looked up): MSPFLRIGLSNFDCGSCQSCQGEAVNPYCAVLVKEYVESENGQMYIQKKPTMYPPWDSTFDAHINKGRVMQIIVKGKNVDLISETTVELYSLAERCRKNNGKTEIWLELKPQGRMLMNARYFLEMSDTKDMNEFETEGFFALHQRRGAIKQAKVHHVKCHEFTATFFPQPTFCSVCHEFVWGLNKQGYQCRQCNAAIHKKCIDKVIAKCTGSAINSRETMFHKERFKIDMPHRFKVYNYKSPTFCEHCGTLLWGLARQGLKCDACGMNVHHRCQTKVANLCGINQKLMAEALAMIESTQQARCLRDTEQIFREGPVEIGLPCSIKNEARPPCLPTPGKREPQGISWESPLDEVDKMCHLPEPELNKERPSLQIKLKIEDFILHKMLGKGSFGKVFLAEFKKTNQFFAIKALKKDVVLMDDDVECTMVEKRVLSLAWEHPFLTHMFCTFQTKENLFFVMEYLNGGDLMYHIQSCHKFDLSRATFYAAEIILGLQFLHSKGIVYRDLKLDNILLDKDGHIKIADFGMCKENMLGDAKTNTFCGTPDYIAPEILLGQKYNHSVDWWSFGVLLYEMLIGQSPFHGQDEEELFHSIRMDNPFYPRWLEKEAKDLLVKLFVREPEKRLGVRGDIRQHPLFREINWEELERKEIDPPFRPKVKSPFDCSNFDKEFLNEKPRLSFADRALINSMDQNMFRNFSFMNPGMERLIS

On to `COc1cc2ncnc(N[C@H](C)c3cccc4ccccc34)c2cc1OC`, for which the Activity in experiment [1] was 91%; in experiment [2], 90%; in experiment [3] it was 100%; in experiment [4], 96%; in experiment [5], 70%; in experiment [6], 80%.

For the origin of these results see ChEMBL document CHEMBL5678818, “Discovery of potent SOS1 inhibitors that block RAS activation via disruption of the RAS-SOS1 interaction” (Proc Natl Acad Sci U S A, 2019).
